# pIC50: −log10 of the molar value.
# Molecular target: T1, Human recombinant Vanin-1 (VNN1) (Homo sapiens, UniProt O95497)
# T1 construct: purchased Sino Biological Inc. 11662-H08H
# T1 sequence (O95497 22-491): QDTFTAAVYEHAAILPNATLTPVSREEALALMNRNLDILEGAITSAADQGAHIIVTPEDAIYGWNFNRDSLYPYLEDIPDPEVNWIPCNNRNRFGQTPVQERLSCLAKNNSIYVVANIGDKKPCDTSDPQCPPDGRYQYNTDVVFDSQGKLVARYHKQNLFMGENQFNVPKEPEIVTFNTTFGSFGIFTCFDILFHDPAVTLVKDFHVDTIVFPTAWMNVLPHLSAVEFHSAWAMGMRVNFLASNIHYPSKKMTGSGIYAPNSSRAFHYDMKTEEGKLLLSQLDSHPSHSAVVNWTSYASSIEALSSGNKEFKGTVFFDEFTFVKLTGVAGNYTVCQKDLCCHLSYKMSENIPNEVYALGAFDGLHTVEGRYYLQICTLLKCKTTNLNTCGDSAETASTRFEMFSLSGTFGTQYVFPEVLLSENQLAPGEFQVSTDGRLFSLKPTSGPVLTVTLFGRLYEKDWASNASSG
# Assay: Vanin-1 enzymatic assay (fluorescence intensity, Pantothenate-AMC substrate)
# Assay type: biochemical
# Conditions: purified recombinant human Vanin-1 0.5 nM; 30 min preincubation at 30° C.; Pantothenate-AMC 30 μM, 60 min
# Method: Human recombinant Vanin-1 (VNN1) was purchased from Sino Biological Inc. (Catalog Number: 11662-H08H).
# Measurement of VNN1 inhibition is performed in 384-well format based on fluorescence intensity assay. Purified recombinant human Vanin-1 (0.5 nM) and threefold serial diluted compounds in 3% DMSO (range of concentrations from 30 μM to 1.524 nM) or controls (3.0% DMSO) are incubated for 30 minutes at 30° C. with gentle agitation in assay buffer containing 100 mM potassium Phosphate Buffer (KPi), pH 7.5, 0.001% Bovine Serum Albumin (BSA), 0.5 mM dithiothreitol (DTT) and 0.0025% Brij-35. The reaction is initiated by the addition of the fluorogenic substrate, Pantothenate-AMC, at a concentration of 30 μM. After 60 minutes of incubation at 30° C. with gentle agitation, fluorescence intensity is measured at λex=350 nm and λem=450 nm with a fluorescence reader (BMG PHERAstar reader or equivalent).
row,Compound,pIC50
1,CC(C)(CO)[C@@H](O)C(=O)NCCN(CCOc1ccc(Br)cc1)C(=O)CCl [Example 66],5.54
2,"COC(=O)CNC(=O)C(=O)CCNC(=O)[C@H](O)C(C)(C)CO [Example 25, [4-((R)-2,4-Dihydroxy-3,3-dimethyl-butyrylamino)-2-oxo-butyrylamino]-acetic acid methyl ester]",5.63
3,"CC(C)(CO)[C@@H](O)C(=O)NCCC(=O)C(=O)NCc1ccc(Oc2ccncc2)cc1 [Example 37, (R)-2,4-Dihydroxy-3,3-dimethyl-N-{3-oxo-3-[4-(pyridin-4-yloxy)-benzylcarbamoyl]-propyl}-butyramide]",8.00
4,"CC(C)(CO)[C@@H](O)C(=O)NCCC(=O)C(=O)NCc1ccc(OCCN2CCOCC2)cc1 [Example 44, (R)-2,4-Dihydroxy-3,3-dimethyl-N-(3-[4-(2-morpholin-4-yl-ethoxy)-benzylcarbamoyl]-3-oxo-propyl)-butyramide]",7.30
5,"CC(C)(CO)[C@@H](O)C(=O)NCCC(=O)C(=O)NCC1CCN(S(=O)(=O)c2cccc(F)c2)CC1 [Example 51, (R)—N-(3-{[1-(3-Fluoro-benzenesulfonyl)-piperidin-4-ylmethyl]-carbamoyl}-3-oxo-propyl)-2,4-dihydroxy-3,3-dimethyl-butyramide]",7.70
6,"CC(C)(CO)[C@@H](O)C(=O)NCCC(=O)C(=O)NCc1ccc(C(=O)O)cc1 [Example 54, 4-{[4-((R)-2,4-Dihydroxy-3,3-dimethyl-butrylamino)-2-oxo-butyrylamino]-methyl}-benzoic acid]",7.05
7,"CC(C)(CO)[C@@H](O)C(=O)NCCC(=O)C(=O)NC(c1ccccc1)c1ccccc1 [Example 21, (R)—N-[3-(Benzhythyl-carbamoyl)-3-oxo-propyl]-2,4-dihydroxy-3,3-dimethyl-butyramide]",4.94
8,CC(NC(=O)C(=O)CCNC(=O)[C@H](O)C(C)(C)CO)c1ccccc1 (some centres unmarked) [Example 20],5.52
9,"CC(C)(CO)[C@@H](O)C(=O)NCCC(=O)C(=O)NCC1CCN(S(=O)(=O)c2ccc(N3CCCC3=O)cc2)CC1 [Example 46, (R)-2,4-Dihydroxy-3,3-dimethyl-N-[3-oxo-3-({1-[4-(2-oxo-pyrrolidin-1-yl)-benzenesulfonyl]-piperidin-4-ylmethyl}-carbamoyl)-propyl]-butyramide]",> 8.00
10,"CC(C)(CO)[C@@H](O)C(=O)NCCC(=O)C(=O)NCC1CCCO1 (stereo partly drawn) [Example 29, (R)-2,4-Dihydroxy-3,3-dimethyl-N-(3-oxo-3-[(tetrahydro-furan-2-ylmethyl)-carbamoyl]-propyl)-butyramide]",6.15
11,"CC(C)(CO)[C@@H](O)C(=O)NCCC(=O)C(=O)NCCOc1ccccc1 [Example 42, (R)-2,4-Dihydroxy-3,3-dimethyl-N-[3-oxo-3-(2-phenoxy-ethylcarbamoyl)-propyl]-butyramide]",6.47
12,"CC(C)(CO)[C@@H](O)C(=O)NCCC(=O)C(=O)NCC1CCN(S(=O)(=O)c2ccc(-c3ccccc3)cc2)CC1 [Example 38, (R)—N-(3-{[1-(Biphenyl-4-sulfonyl)-piperidin-4-ylmethyl]-carbamoyl}-3-oxo-propyl)-2,4-dihydroxy-3,3-dimethyl-butyramide]",> 8.00
13,"CC(C)(CO)[C@@H](O)C(=O)NCCC(=O)C(=O)N1CCC(Nc2cccc(S(=O)(=O)C(F)(F)F)c2)CC1 [Example 43, (R)—N-{3,4-Dioxo-4-[4-(3-trifluoromethanesulfonyl-phenylamino)-piperidin-1-yl]-butyl}-2,4-dihydroxy-3,3-dimethyl-butyramide]",4.90
14,CN(Cc1ccccc1)C(=O)C(=O)CCNC(=O)[C@H](O)C(C)(C)CO [Example 27],5.01
15,"CC(C)(CO)[C@@H](O)C(=O)NCCC(=O)C(=O)Nc1ccccc1 [Example 16, (R)-2,4-Dihydroxy-3,3-dimethyl-N-(3-oxo-3-phenylcarbamoyl-propyl)-butyramide]",5.08
16,"CC(C)(CO)[C@@H](O)C(=O)NCCC(=O)C(=O)NCc1ccc(N2CCOCC2)cc1 [Example 41, (R)-2,4-Dihydroxy-3,3-dimethyl-N-[3-(4-morpholin-4-yl-benzylcarbamoyl)-3-oxo-propyl]-butyramide]",8.00

row,Compound,pIC50
1,"COCCOc1ccc(CNC(=O)C(=O)CCNC(=O)[C@H](O)C(C)(C)CO)cc1 [Example 50, (R)-2,4-Dihydroxy-N-(3-[4-(2-methoxy-ethoxy)-benzylcarbamoyl]-3-oxo-propyl)-3,3-dimethyl-butyramide]",7.52
2,"COC(=O)c1ccc(-c2ccc(CNC(=O)C(=O)CCNC(=O)[C@H](O)C(C)(C)CO)cc2)cc1 [Example 56, 4′-{[4-((R)-2,4-Dihydroxy-3,3-dimethyl-butyrylamino)-2-oxo-butyrylamino]-methyl}-biphenyl-4-carboxylic acid methyl ester]",8.00
3,"CC(C)(CO)[C@@H](O)C(=O)NCCC(=O)C(=O)NCc1cccc(S(=O)(=O)N2CCCCC2)c1 [Example 36, (R)-2,4-Dihydroxy-3,3-dimethyl-N-{3-oxo-3-[3-(piperidine-1-sulfonyl)-benzylcarbamoyl}-propyl)-butyramide]",6.77
4,"CC(=O)CCNC(=O)[C@H](O)C(C)(C)CO [Example 1, (R)-2,4-Dihydroxy-3,3-dimethyl-N-(3-oxo-butyl)-butyramide]",5.27
5,"CC(=O)N1CCC(CNC(=O)C(=O)CCNC(=O)[C@H](O)C(C)(C)CO)CC1 [Example 48, (R)—N-(3-[(1-Acetyl-piperidin-4-ylmethyl)-carbamoyl]-3-oxo-propyl)-2,4-dihydroxy-3,3-dimethyl-butyramide]",6.96
6,"CC(C)(CO)[C@@H](O)C(=O)NCCC(=O)C(=O)NCC1CCN(S(=O)(=O)Cc2cccc(F)c2)CC1 [Example 52, (R)—N-(3-{[1-(3-Fluoro-phenylmethanesulfonyl)-piperidin-4-ylmethyl]-carbamoyl}-3-oxo-propyl)-2,4-dihydroxy-3,3-dimethyl-butyramide]",7.30
7,"CCOC(=O)c1ccc(CNC(=O)C(=O)CCNC(=O)[C@H](O)C(C)(C)CO)cc1 [Example 45, 4-{[4-((R)-2,4-Dihydroxy-3,3-dimethyl-butyrylamino)-2-oxo-butyrylamino]-methyl}-benzoic acid ethyl ester]",7.70
8,"CC(C)(CO)[C@@H](O)C(=O)NCCC(=O)C(=O)NCC1CCN(S(C)(=O)=O)CC1 [Example 47, (R)-2,4-Dihydroxy-N-(3-[(1-methanesulfonyl-piperidin-4-ylmethyl)-carbamoyl]-3-oxo-propyl)-3,3-dimethyl-butyramide]",7.70
9,"CC(C)(CO)[C@@H](O)C(=O)NCCC(=O)C(=O)NCCCc1ccc(S(=O)(=O)N2CCCCC2)cc1 [Example 35, (R)-2,4-Dihydroxy-3,3-dimethyl-N-(3-oxo-3-{3-[4-(piperidine-1-sulfonyl)-phenyl]-propylcarbamoyl}-propyl)-butyramide]",7.15
10,"CC(C)(CO)[C@@H](O)C(=O)NCCC(=O)C(=O)NCCc1ccc(S(C)(=O)=O)cc1 [Example 30, (R)-2,4-Dihydroxy-N-{3-[2-(4-methanesulfonyl-phenyl)-ethylcarbamoyl]-3-oxo-propyl}-3,3-dimethyl-butyramide]",7.52
11,"CC(C)(CO)[C@@H](O)C(=O)NCCC(=O)C(=O)NCc1ccc(-c2ccc(S(C)(=O)=O)cc2)cc1 [Example 53, (R)-2,4-Dihydroxy-N-{3-[(4′-methanesulfonyl-biphenyl-4-ylmethyl)-carbamoyl]-3-oxo-propyl}-3,3-dimethyl-butyramide]",8.00
12,"CC(C)(CO)[C@@H](O)C(=O)NCCC(=O)C(=O)N1CCOCC1 [Example 49, (R)-2,4-Dihydroxy-3,3-dimethyl-N-(4-morpholin-4-yl-3,4-dioxo-butyl)-butyramide]",4.64
13,"CC(C)(CO)[C@@H](O)C(=O)NCCC(=O)C(=O)NCCc1ccccc1 [Example 12, (R)-2,4-Dihydroxy-3,3-dimethyl-N-(3-oxo-3-phenethylcarbamoyl-propyl)-butyramide]",7.05
14,"CC(C)(CO)[C@H](O)C(=O)NCCC(=O)C(=O)NCc1ccccc1 [Example 13, (S)—N-(3-Benzylcarbamoyl-3-oxo-propyl)-2,4-dihydroxy-3,3-dimethyl-butyramide]",6.34
15,"CC(C)(CO)[C@@H](O)C(=O)NCCC(=O)C(=O)NCCCN1CCOCC1=O [Example 40, (R)-2,4-Dihydroxy-3,3-dimethyl-N-{3-oxo-3-[3-(3-oxo-morpholin-4-yl)-propylcarbamoyl}-propyl)butyramide]",6.40
16,"CC(C)(CO)[C@@H](O)C(=O)NCCC(=O)C(=O)NCC1CCN(S(=O)(=O)c2ccccc2)CC1 [Example 34, (R)—N-(3-[(1-Benzenesulfonyl-piperidin-4-ylmethyl)-carbamoyl]-3-oxo-propyl)-2,4-dihydroxy-3,3-dimethyl-butyramide]",7.70
